Where “and” joins values, the source holds several entries; their conditions need not be identical. Equal values may be shown once.
Columns and labels:
MOPG-406 = test: Antitumor effect on grafted hemoblastoses (MOPC-406), extension of lifespan; assay type: in vivo, mice and rats; conditions: in vivo
Ca-755 = test: Antitumor effect on grafted solid tumor Ca-755; assay type: in vivo, mice and rats; conditions: in vivo
[1] = test system: Large intestine adenocarcinoma AKATOL; test: Antitumor effect on grafted large intestine adenocarcinoma AKATOL; assay type: in vivo, mice and rats; conditions: in vivo
Hepatoma G-60 = test: Antitumor effect on grafted hepatoma G-60; assay type: in vivo, mice and rats; conditions: in vivo
Hepatoma G-61 = test: Antitumor effect on grafted hepatoma G-61; assay type: in vivo, mice and rats; conditions: in vivo
[2] = test system: Alveolar mammary cancer RMK-1; test: Antitumor effect on grafted alveolar mammary cancer RMK-1; assay type: in vivo, mice and rats; conditions: in vivo
[3] = test system: Spontaneous mammary tumors of mice; test: Effect on spontaneous breast tumors in repeated treatment courses; assay type: in vivo
Excerpt: (§1) For the study of the antitumor activity of the compounds according to the present invention use was made of regrafted hemoblastoses, grafted solid tumors, induced and spontaneous tumors of mice and rats. The following models were used: L 1210, P-388, hemocytoblastosis La, MOPC-406, viral lympholeukosis Mazurenko LMC-1, Ca-755, mammary carcinoma metastasizing into lungs KML, alveolar mammary cancer RMK-1, small intenstine adenocarcinoma AKATON, large intestine adenocarcinoma AKATOL, Lewis lung carcinoma LL, lung adenocarcinoma RL-67, hepatomae G-22c, G-60, G-61, sarcomae S-37 and S-180, DMBA (dimethylbenzanthracene)-induced and spontaneous mammary tumors, and […] (dimethylhydrazine)-induced tumors of the large intestine.
(§2) The compounds were administered to the animals hypodermally in kernel oil. For the purpose of comparison, a known hormonocytostatic estracyte (estra-1,3,5-(10)treine-3,17β-diol-3N-[bis-(2-chloroethyl)carbamate-17-sodium phosphate] was used which was administered hypodermally in a solution of a 0.9% NaCl, chlorphenacyl and chloroambucyl which were administered intraperitoneally in a 10% solution of ethanol, sarcolysine (β-[p-di(2-chloroethyl)aminophenyl]-α-alanine hydrochloride)--intraperitoneally in a 0.9% solution of NaCl, prednisolone (pregnadiene-1,4-triol-11β,17α,21-dione-3,20)--per os in a starch size.
(§3) Criteria of the antitumor activity of the compounds according to the present invention are: extension of the lifespan of the animals (ELA, %) and tumor growth inhibition (TGI, %). [formula] T--average lifespan of the treated animals; C--average lifespan of the control animals. [formula] O--average tumor volume in the group of treated animals; K--average tumor volume in the group of control animals.
In the case of using spontaneous or induced tumors, by means of carcinogenic substances, the criteria of the antitumor effect are: TGI, % or decrease in the tumor size, %, as compared to its initial value. The treatment of spontaneous and induced tumors was initiated after achieving, by these tumors, of a particular size excluding the possibility of a spontaneous regression.

[4] = test system: grafted hemoblastoses and solid tumors; test: Antitumor activity, summary over the tumor models; assay type: in vivo, mice and rats
Excerpt: as §1
The studies were carried out on line mice and their first-generation hybrids, as well as on mongrel mice and rats.
as §2, §3

in vivo = conditions: mouse
[5] = Toxicological study, limiting toxicity

SMILES: C[C@]12CCC(=O)C=C1CC[C@@H]1[C@@H]2CC[C@@]2(C)[C@H]1CC[C@]2(O)C(=O)COC(=O)Cc1ccc(N(CCCl)CCCl)cc1 [11-desoxy-17α-hydroxy-21-[p-di(2-chloroethyl)-aminophenylacetate] corticosterone]
- Extension of the lifespan of the animals (ELA) (MOPG-406): 76%
- Extension of the lifespan (Ca-755): 73%
- Maximum tumor growth inhibition (Ca-755): 99%
- Tumor growth inhibition (Ca-755): 92% and 73% and 82%
- Maximum tumor growth inhibition (Ca-755; 45 mg/kg): 94%
- Maximum tumor growth inhibition [1]: 98%
- Maximum tumor growth inhibition (Hepatoma G-60): 99%
- Maximum tumor growth inhibition (Hepatoma G-61): 89%
- Maximum tumor growth inhibition [2]: 59%
- activity in repeated treatment courses ([3]; Table 4): reveals activity in repeated treatment courses
- reduction in size of spontaneous tumors in breasts ([3]; compared to the size prior to the treatment): causes reduction in size of induced and spontaneous tumors
- Increased lifespan ([3]; spontaneous, mice, 15 mg/kg/24 h × 5, 2 courses, 3 weeks interval): 11%
- Decrease or increase (+) of the tumor, % of the initial one ([3]; spontaneous, mice, 15 mg/kg/24 h × 5, 2 courses, 3 weeks interval, week 1): 23%
- Decrease or increase (+) of the tumor, % of the initial one ([3]; spontaneous, mice, 15 mg/kg/24 h × 5, 2 courses, 3 weeks interval, week 2): 37%
- Decrease or increase (+) of the tumor, % of the initial one ([3]; spontaneous, mice, 15 mg/kg/24 h × 5, 2 courses, 3 weeks interval, week 3): +7%
- Decrease or increase (+) of the tumor, % of the initial one ([3]; spontaneous, mice, 15 mg/kg/24 h × 5, 2 courses, 3 weeks interval, week 4): 64%
- Decrease or increase (+) of the tumor, % of the initial one ([3]; spontaneous, mice, 15 mg/kg/24 h × 5, 2 courses, 3 weeks interval, week 5): 20%
- Decrease or increase (+) of the tumor, % of the initial one ([3]; spontaneous, mice, 15 mg/kg/24 h × 5, 2 courses, 3 weeks interval, week 6): 50%
- Decrease or increase (+) of the tumor, % of the initial one ([3]; spontaneous, mice, 15 mg/kg/24 h × 5, 2 courses, 3 weeks interval, week 7): 25%
- Decrease or increase (+) of the tumor, % of the initial one ([3]; spontaneous, mice, 15 mg/kg/24 h × 5, 2 courses, 3 weeks interval, week 8): 16%
- inhibits growth of substantially all tumors ([4]; Table 2 summary, grafted solid tumors): 80-99%
- duration of tumor growth inhibition after completion of the treatment course ([4]; Table 3 summary): ≥ 1 month
- extension of the lifespan of the animals as compared to the control ([4]; Table 3 summary): 27-73%
- antitumor effect compared with reference agents ([4]; in vivo): considerably superior, as regards its activity on numerous models, over the known alkylating preparation sarcolysine
- LD50 (in vivo): 80 mg/kg
- MTD (in vivo): 44 mg/kg
- limiting toxicity ([5]; degree depends on the dose): gastroenteral and neurotoxicity (diarrhea, vomition, convulsions)
- hematotoxicity ([5]; mouse, in vivo): does not restrict the administration
